According to US20080145431A1, “Medicinal Composition and Process for Producing the Same” (priority 2005, published 2008):
Where two headings read alike, the source gives them in different places.

How the values were obtained:
[1] = Saturation solubility in water; format: physicochemical
[2] = cited from earlier work

Row | Solubility in water under substantially physiological conditions ([1]; pH 5 to 7) | solubility ([1]; water, process liquid temperature of 17° C.) [µg/mL] | SMILES | Saturation solubility in water ([2]; 22° C.) [µg/mL] | Saturation solubility in water ([2]; 37° C.) [µg/mL]
1 | practically insoluble | ≤ 100 | NS(=O)(=O)c1ccc(S(=O)(=O)Nc2cccc3c(Cl)c[nH]c23)cc1 [Drug A, N-(3-chloro-7-indolyl)-1,4-benzenedisulfonamide] | – | –
2 | – | – | COc1ccc(Cl)cc1C(=O)NCCc1ccc(S(=O)(=O)NC(=O)NC2CCCCC2)cc1 [Glibenclamide] | 5.9 | 9.9
